Measured values published in US12171230B2, “Herbicidal compositions” (Bayer Aktiengesellschaft, priority 2018, dated 2024).

What was measured:
Type in all cases: in vivo
Bidens pilosa = assay: Post-emergence herbicidal action against Bidens pilosa; conditions: for Herbicidal action against Bidens pilosa: 21 DAT
How it was run: (§1)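 Weeds sown in sandy loam pots in greenhouse; treated post-emergence at three-leaf stage (three weeks after sowing) by spraying formulated compositions at various dosages in 300 to 800 l/ha water. Visual scoring versus untreated controls after about 3 to 4 weeks; synergism judged against Colby expected values.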

Phalaris minor = assay: Post-emergence herbicidal action against Phalaris minor
How it was run: (§2)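 Dose unit: g a.i./ha (100% active). Scoring in days after application (DAT). E^A = sum of single-application effects; E^C = Colby expected value.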

Matricaria inodora = assay: Post-emergence herbicidal action against Matricaria inodora
Lolium rigidum = assay: Post-emergence herbicidal action against Lolium rigidum
How it was run: as §2

Viola tricolor = assay: Post-emergence herbicidal action against Viola tricolor
Text: (§3) The following abbreviations are used in the description and the tables that follow: • g of a.i./ha=grams of active substance (active ingredient) (=100% active compound) per hectare; • The sum total of the effects of the individual applications is reported under E^A; • expected values according to Colby are each reported under E^C.
(§4) The rating period is reported in days after application (DAT).

Abutilon theophrasti = assay: Post-emergence herbicidal action against Abutilon theophrasti; conditions: g of a.i./ha: 90, 30, 15, 15 + 90, 15 + 30
Text: as §3, §4

Veronica hederifolia = assay: Post-emergence herbicidal action against Veronica hederifolia; conditions: g of a.i./ha: 16, 270, 16 + 270
Text: as §3, §4

Brachiaria plantaginea = assay: Post-emergence herbicidal action against Brachiaria plantaginea; conditions: (Z61) post-emergence; g of a.i./ha: 200, 100, 100 + 200
Text: as §3, §4

Kochia scoparia = assay: Post-emergence herbicidal action against Kochia scoparia; conditions: g of a.i./ha by row: 30, 5, 5 + 30
Text: as §3, §4

Brachiaria decumbens = assay: Post-emergence herbicidal action against Brachiaria decumbens; conditions: g of a.i./ha: 200, 100, 100 + 200
Text: as §3, §4

Digitaria sanguinalis = assay: Post-emergence herbicidal action against Digitaria sanguinalis; conditions: (Z61) post-emergence; g of a.i./ha: 180, 100, 100 + 180
How it was run: as §1

Setaria viridis = assay: Post-emergence herbicidal action against Setaria viridis; conditions: 21 DAT
Experimental: (§5) When the observed efficacies exceed the formal sum total of the values of the tests with individual applications, they also exceed the expected value according to Colby, which is calculated using the formula below and is likewise regarded as an indication of synergism (cf. S. R. Colby; in Weeds 15 (1967) p. 20 to 22): E^C=A+B−([…])
(§6) Here: • A=efficacy of the active compound (A) in % at an application rate of a g a.i./ha; • B=efficacy of the active compound (B) in % at an application rate of b g a.i./ha; • E^C=expected value of the effect of the combination (A)+(B) in % at the combined application rate a+b g a.i./ha.
(§7) Seeds or rhizome pieces of mono- and dicotyledonous weeds are placed in sandy loam in pots, covered with soil and grown in a greenhouse under good growth conditions (temperature, air humidity, water supply). Three weeks after sowing, the test plants were treated at the three-leaf stage with the compositions according to the invention. The compositions according to the invention formulated as spray powders or as emulsion concentrates were sprayed onto the green plant parts in various dosages with an application rate of 300 to 800 l/ha of water (equivalent). After the test plants have been left to stand in the greenhouse under optimal growth conditions for about 3 to 4 weeks, the action of the preparations is scored visually in comparison to untreated controls. The compositions according to the invention also have good post-emergence herbicidal activity against a broad spectrum of economically important gramineous and broadleaf weeds.

Alopecurus myosuroides = assay: Post-emergence herbicidal action against Alopecurus myosuroides
How it was run: as §2

Sorghum halepense = assay: Post-emergence herbicidal action against Sorghum halepense
How it was run: as §1

Panicum maximum = assay: Post-emergence herbicidal action against Panicum maximum; conditions: g of a.i./ha: 200, 100, 100 + 200
Experimental: as §5, §6, §7

Amaranthus palmeri = assay: Post-emergence herbicidal action against Amaranthus palmeri; conditions: 21 DAT; 30 g of a.i./ha
How it was run: as §1

Lamium purpureum = assay: Post-emergence herbicidal action against Lamium purpureum
How it was run: as §1

Digitaria horizontalis = assay: Post-emergence herbicidal action against Digitaria horizontalis; conditions: (Z61) post-emergence; g of a.i./ha: 200, 100, 100 + 200
Text: as §3, §4

[1] = system: Lolium rigidum (resistant biotype); assay: Post-emergence herbicidal action against Lolium rigidum (resistant biotype)
How it was run: as §2

[2] = (Z61) post-emergence, g of a.i./ha: 4, 1, 270, 90, 4 + 270, 4 + 90, 1 + 270, 1 + 90, 90 g of a.i./ha
[3] = (Z61) post-emergence, g of a.i./ha: 4, 1, 270, 90, 4 + 270, 4 + 90, 1 + 270, 1 + 90, 270 g of a.i./ha

## O=C(Nc1ccc(F)cc1F)c1cccnc1Oc1cccc(C(F)(F)F)c1 [(B2.18) Diflufenican]
Bidens pilosa; 90 g of a.i./ha
  Herbicidal action against Bidens pilosa: 35%
Bidens pilosa; 270 g of a.i./ha
  Herbicidal action against Bidens pilosa: 45%
Bidens pilosa; post-emergence, g of a.i./ha: 90, 30, 15, 15 + 90, 15 + 30
  Herbicidal action 21 DAT against Bidens pilosa: 10%
Phalaris minor; 30 g of a.i./ha
  Herbicidal action 28 DAT against Phalaris minor: 0%
Phalaris minor; 90 g of a.i./ha
  Herbicidal action 28 DAT against Phalaris minor: 0%
Phalaris minor; 270 g of a.i./ha
  Herbicidal action 28 DAT against Phalaris minor: 5%
Phalaris minor; (Z119) post-emergence, g of a.i./ha: 16, 4, 270, 90, 30, 16 + 270, 16 + 90, 16 + 30, 4 + 270, 4 + 30, 90 g of a.i./ha
  Herbicidal action 28 DAT against Phalaris minor: 0%
Phalaris minor; (Z119) post-emergence, g of a.i./ha: 16, 4, 270, 90, 30, 16 + 270, 16 + 90, 16 + 30, 4 + 270, 4 + 30, 270 g of a.i./ha
  Herbicidal action 28 DAT against Phalaris minor: 5%
Phalaris minor; (Z119) post-emergence, g of a.i./ha: 16, 4, 270, 90, 270, 16 + 270, 16 + 90, 4 + 270
  Herbicidal action 14 DAT against Phalaris minor: 5%
Matricaria inodora; 90 g of a.i./ha
  Herbicidal action 14 DAT against Matricaria inodora: 50%
Matricaria inodora; (Z61) post-emergence, g of a.i./ha: 4, 1, 30, 4 + 30, 1 + 30
  Herbicidal action 28 DAT against Matricaria inodora: 0%
Matricaria inodora; (Z119) post-emergence, g of a.i./ha by row: 16, 4, 270, 90, 16 + 270, 4 + 90
  Herbicidal action 28 DAT against Matricaria inodora: 50%
Lolium rigidum; 90 g of a.i./ha
  Herbicidal action 28 DAT against Lolium rigidum: 0%
Lolium rigidum; 270 g of a.i./ha
  Herbicidal action 28 DAT against Lolium rigidum: 0%
Lolium rigidum; (Z61) post-emergence, g of a.i./ha: 1, 270, 90, 30, 1 + 270, 1 + 90, 1 + 30, 30 g of a.i./ha
  Herbicidal action 14 DAT against Lolium rigidum: 0%
Lolium rigidum; (Z61) post-emergence, g of a.i./ha: 1, 270, 90, 30, 1 + 270, 1 + 90, 1 + 30, 270 g of a.i./ha
  Herbicidal action 14 DAT against Lolium rigidum: 10%
Lolium rigidum; [2]
  Herbicidal action 28 DAT against Lolium rigidum: 15%
Lolium rigidum; [3]
  Herbicidal action 28 DAT against Lolium rigidum: 20%
Lolium rigidum; (Z119) post-emergence, g of a.i./ha by row: 16, 1, 90, 270, 16 + 90, 1 + 270
  Herbicidal action 14 DAT against Lolium rigidum: 5%
Lolium rigidum; (Z119) post-emergence, g of a.i./ha: 16, 4, 1, 270, 90, 30, 16 + 270, 16 + 90, 16 + 30, 4 + 270, 4 + 90, 4 + 30, 1 + 270
  Herbicidal action 28 DAT against Lolium rigidum: 0%
Viola tricolor; (Z61) post-emergence, g of a.i./ha: 16, 1, 30, 16 + 30, 1 + 30
  Herbicidal action 28 DAT against Viola tricolor: 40%
Viola tricolor; (Z119) post-emergence, g of a.i./ha: 16, 270, 16 + 270
  Herbicidal action 14 DAT against Viola tricolor: 40%
Abutilon theophrasti
  Herbicidal action 21 DAT against Abutilon theophrasti: 10%
Veronica hederifolia
  Herbicidal action 14 DAT against Veronica hederifolia: 85%
Brachiaria plantaginea
  Herbicidal action 28 DAT against Brachiaria plantaginea: 0%
Kochia scoparia
  Herbicidal action 21 DAT against Kochia scoparia: 25%
Brachiaria decumbens
  Herbicidal action 28 DAT against Brachiaria decumbens: 0%
Digitaria sanguinalis
  Herbicidal action 37 DAT against Digitaria sanguinalis: 0%
Setaria viridis; 30 g of a.i./ha
  Herbicidal action against Setaria viridis: 10%
Setaria viridis; 90 g of a.i./ha
  Herbicidal action against Setaria viridis: 10%
Setaria viridis; 270 g of a.i./ha
  Herbicidal action against Setaria viridis: 15%
Alopecurus myosuroides; (Z61) post-emergence, g of a.i./ha by row: 16, 4, 1, 270, 90, 16 + 270, 4 + 270, 4 + 90, 1 + 270, 1 + 90, 90 g of a.i./ha
  Herbicidal action 28 DAT against Alopecurus myosuroides: 15%
Alopecurus myosuroides; (Z61) post-emergence, g of a.i./ha by row: 16, 4, 1, 270, 90, 16 + 270, 4 + 270, 4 + 90, 1 + 270, 1 + 90, 270 g of a.i./ha
  Herbicidal action 28 DAT against Alopecurus myosuroides: 20%
Alopecurus myosuroides; [2]
  Herbicidal action 14 DAT against Alopecurus myosuroides: 15%
Alopecurus myosuroides; [3]
  Herbicidal action 14 DAT against Alopecurus myosuroides: 20%
Alopecurus myosuroides; (Z119) post-emergence, g of a.i./ha by row: 16, 1, 270, 90, 30, 16 + 270, 16 + 90, 16 + 30, 1 + 270, 1 + 90
  Herbicidal action 28 DAT against Alopecurus myosuroides: 0%
Alopecurus myosuroides; (Z119) post-emergence, g of a.i./ha: 16, 1, 270, 16 + 270, 1 + 270
  Herbicidal action 14 DAT against Alopecurus myosuroides: 10%
Sorghum halepense; 21 DAT, 30 g of a.i./ha
  Herbicidal action against Sorghum halepense: 10%
Sorghum halepense; (Z3) post-emergence, g of a.i./ha: 90, 30, 15, 5, 15 + 90, 5 + 90, 15 + 30, 5 + 30
  Herbicidal action 21 DAT against Sorghum halepense: 10%
Panicum maximum
  Herbicidal action 28 DAT against Panicum maximum: 0%
Amaranthus palmeri
  Herbicidal action against Amaranthus palmeri (res.): 40%
Lamium purpureum; 30 g of a.i./ha
  Herbicidal action 14 DAT against Lamium purpureum L.: 20%
  Herbicidal action 28 DAT against Lamium purpureum L.: 10%
Lamium purpureum; 90 g of a.i./ha
  Herbicidal action 28 DAT against Lamium purpureum L.: 20%
Lamium purpureum; (Z61) post-emergence, g of a.i./ha by row: 4, 1, 270, 30, 90, 4 + 270, 4 + 30, 1 + 270, 1 + 90, 1 + 30
  Herbicidal action 28 DAT against Lamium purpureum L.: 20%
Lamium purpureum; (Z119) post-emergence, g of a.i./ha by row: 16, 30, 16 + 30
  Herbicidal action 14 DAT against Lamium purpureum L.: 20%
Digitaria horizontalis
  Herbicidal action 28 DAT against Digitaria horizontalis: 0%
[1]; 30 g of a.i./ha
  Herbicidal action 28 DAT against Lolium rigidum (resistant biotype): 0%
[1]; 90 g of a.i./ha
  Herbicidal action 28 DAT against Lolium rigidum (resistant biotype): 0%
[1]; 270 g of a.i./ha
  Herbicidal action 28 DAT against Lolium rigidum (resistant biotype): 0%
[1]; (Z61) post-emergence, g of a.i./ha by row: 4, 1, 270, 90, 4 + 270, 1 + 270, 1 + 90, 90 g of a.i./ha
  Herbicidal action 14 DAT against Lolium rigidum (resistant biotype): 0%
[1]; (Z61) post-emergence, g of a.i./ha by row: 4, 1, 270, 90, 4 + 270, 1 + 270, 1 + 90, 270 g of a.i./ha
  Herbicidal action 14 DAT against Lolium rigidum (resistant biotype): 10%
[1]; (Z61) post-emergence, g of a.i./ha: 4, 1, 270, 90, 4 + 270, 1 + 90, 90 g of a.i./ha
  Herbicidal action 28 DAT against Lolium rigidum (resistant biotype): 10%
[1]; (Z61) post-emergence, g of a.i./ha: 4, 1, 270, 90, 4 + 270, 1 + 90, 270 g of a.i./ha
  Herbicidal action 28 DAT against Lolium rigidum (resistant biotype): 20%
[1]; (Z119) post-emergence, g of a.i./ha by row: 16, 1, 90, 30, 270, 16 + 90, 16 + 30, 1 + 270, 30 g of a.i./ha
  Herbicidal action 14 DAT against Lolium rigidum (resistant biotype): 0%
[1]; (Z119) post-emergence, g of a.i./ha by row: 16, 1, 90, 30, 270, 16 + 90, 16 + 30, 1 + 270, 90 g of a.i./ha
  Herbicidal action 14 DAT against Lolium rigidum (resistant biotype): 5%
[1]; (Z119) post-emergence, g of a.i./ha: 1, 270, 1 + 270
  Herbicidal action 28 DAT against Lolium rigidum (resistant biotype): 0%
